Experimental findings from paper PMC9179882 (Cancers, 2022) are described below.

Each structure is given as a SMILES string.

For this assay, the target named is 5′ETS G4. The experiment in a line: UV-vis titration, 5′ETS G4. The conditions noted are these: UV-vis titration at 265 nm, 5′ETS G4, 25 °C, pH 7.0; read-out: dissociation constant (Kd). The format is binding. The method, then:
G4-oligonucleotides listed in Supplementary Table S3 were purchased from Integrated DNA Technologies (Clareville, IA, USA). All of them were dissolved in G4s buffer (10 mM potassium phosphate, 100 mM potassium chloride at pH 7.0), heated at 95 °C for 10 min, slowly cooled to RT, and stored at 4 °C.
UV-vis absorption spectra were registered in a Varian Cary 50 UV-vis spectrophotometer at 25 °C. Concentration of the prefolded G4 DNA was 5 μM in G4s buffer (10 mM potassium phosphate buffer containing 100 mM potassium chloride at pH 7.0). Once the DNA was placed in the cuvette, a concentrated solution of GA (1 mM) was routinely added, 1 μL each time, with a Hamilton syringe and subsequently mixed with a pipette. After each addition of the GA solution, a UV-vis spectrum was recorded. In total, 10 μL of GA solution were added, with a final ratio of 1:20 G4 DNA:GA. For the blank, the same experiment with the successive additions was repeated, beginning just with buffer in the cuvette. […] Dissociation constants (Kd) were evaluated at 265 nm using the following equation:(1) A=Am+(Aml-Am)×(M+L+Kd)−(M+L+Kd)^2−4×M×L/2×M where A is the absorbance signal, Am is the signal of DNA in absence of the ligand, Aml is the signal of DNA in presence of the ligand, M is the total concentration of DNA, L is the total concentration of ligand, and Kd is the dissociation constant.

In general, Kd refers to a measure of binding affinity in units of concentration. Turning to `O=C(O)c1cc(O)c(O)c(O)c1` [Gallic acid, 3,4,5-trihydroxybenzoic acid], the equilibrium dissociation constant (Kd) is 148 µM.
